Test results from ChEMBL document CHEMBL5584261, “N-methylmorpholine incorporation into the structure of biphenyl leads to the bioactive inhibitor of PD-1/PD-L1 interaction” (Bioorg Med Chem Lett, 2024).
Activity calls are given as the source filed them. The rule behind the calls is not given here.

Assays:
[1] = biological target: T1, Programmed cell death protein 1/Programmed cell death 1 ligand 1 (Homo sapiens, UniProt Q9NZQ7); assay: (§1) Inhibition of PD-1/PD-L1 interaction in human Jurkat T cells co-cultured with CHO/TCRAct/PDL1 cells assessed as restoration of T cell activation measured for 6 hrs by luminescence based immune checkpoint blockade assay
T1 sequence (Q15116 whole entry): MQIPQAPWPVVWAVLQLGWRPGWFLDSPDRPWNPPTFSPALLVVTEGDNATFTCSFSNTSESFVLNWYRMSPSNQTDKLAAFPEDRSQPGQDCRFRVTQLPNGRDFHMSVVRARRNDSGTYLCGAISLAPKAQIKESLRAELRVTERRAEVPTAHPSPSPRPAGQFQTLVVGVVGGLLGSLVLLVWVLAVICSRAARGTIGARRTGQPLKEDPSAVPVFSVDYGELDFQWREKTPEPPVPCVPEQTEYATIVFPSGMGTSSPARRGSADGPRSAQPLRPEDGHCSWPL
T1 sequence (Q9NZQ7 whole entry): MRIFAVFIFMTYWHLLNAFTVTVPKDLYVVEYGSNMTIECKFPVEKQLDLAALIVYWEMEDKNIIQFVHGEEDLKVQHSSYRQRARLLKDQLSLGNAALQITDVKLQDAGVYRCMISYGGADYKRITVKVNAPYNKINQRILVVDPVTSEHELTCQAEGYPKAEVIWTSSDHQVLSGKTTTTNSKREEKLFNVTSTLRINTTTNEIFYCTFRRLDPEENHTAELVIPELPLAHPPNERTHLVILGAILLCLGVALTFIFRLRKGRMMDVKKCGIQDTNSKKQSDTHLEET

[2] = biological target: T2, Programmed cell death protein 1/Programmed cell death 1 ligand 1 (Homo sapiens) (UniProt Q15116+Q9NZQ7); assay: Inhibition of human PD-1/PD-L1 interaction assessed as residual activity at 500 nM for 1 hr by HTRF assay relative to control; type: protein-complex assay
[3] = biological target: T2, Programmed cell death protein 1/Programmed cell death 1 ligand 1 (Homo sapiens); assay: as §1; details: dose 0.1-100 µM
[4] = biological target: T1, Programmed cell death protein 1/Programmed cell death 1 ligand 1; assay: Inhibition of human PD-1/PD-L1 interaction incubated for 1 hr by HTRF assay; type: protein-complex assay
PBMC [5] = assay: Induction of T cell activation in human PBMC cells co-cultured with CHO/TCRAct/PD-L1 cells assessed as increase in PD-1 positive cells at 10 uM incubated for 48 hrs by flow cytometry analysis; type: functional, cell-based
PBMC [6] = assay: Induction of T cell activation in human PBMC cells co-cultured with CHO/TCRAct/PD-L1 cells assessed as increase in the percentage of CD69+/CD8+ cells at 10 uM incubated for 48 hrs by flow cytometry analysis; type: functional, cell-based
PBMC [7] = assay: Induction of T cell activation in human PBMC cells co-cultured with CHO/TCRAct/PD-L1 cells assessed as increase in the percentage of CD25+/CD4+ cells at 10 uM incubated for 48 hrs by flow cytometry analysis; type: functional, cell-based
PBMC [8] = assay: Induction of T cell activation in human PBMC cells co-cultured with CHO/TCRAct/PD-L1 cells assessed as increase in HLA-DR positive cells at 10 uM incubated for 48 hrs by flow cytometry analysis; type: functional, cell-based

## O=C(O)[C@@H]1CCCCN1Cc1ccc(OCc2cccc(-c3ccccc3)c2Br)c(Br)c1
[1]
  EC50: 6.6 µM

## Cc1c(COc2ccc(CNC(CO)(CO)CO)cc2)cccc1-c1ccc2c(c1)OCCN2C(=O)c1ccc(CNC(CO)(CO)CO)cc1
[2]
  Activity: 83%

## Cc1c(NC(=O)c2ccc(CNC(CO)CO)cn2)cccc1-c1ccc2c(c1)OCCN2C(=O)c1ccc(CNC(CO)CO)cc1
[2]
  Activity: 70%

## Cc1c(NC(=O)c2ccc(CNC(CO)CO)cn2)cccc1-c1ccc2c(c1)OCCN2C
[3]
  inhibition: inactive
[4]
  IC50: 0.109 µM

## Cc1c(COc2ccc(CNC(CO)CO)cc2)cccc1-c1ccc2c(c1)OCCN2C(=O)c1ccc(CNC(CO)CO)cc1
[2]
  Activity: 84%

## Cc1c(NC(=O)c2ccc(CNC(CO)(CO)CO)cn2)cccc1-c1ccc2c(c1)OCCN2C
PBMC [5]
  Activity: Active
[3]
  inhibition: Dose-Dependent Effect
[1]
  EC50: 25.8 µM
PBMC [6]
  Activity: Active
PBMC [7]
  Activity: Active
[4]
  IC50: 0.077 µM
PBMC [8]
  Activity: Active

## Cc1c(NC(=O)c2ccc(CNC(CO)(CO)CO)cn2)cccc1-c1ccc2c(c1)OCCN2C(=O)c1ccc(CNC(CO)(CO)CO)cc1
[2]
  Activity: 92%
